Results as given in ChEMBL document CHEMBL2331144, “Synthesis and anticancer activity of analogues of phenstatin, with a phenothiazine A-ring, as a new class of microtubule-targeting agents” (Bioorg Med Chem Lett, 2013).

Legend:
[1] = Inhibition of sheep brain tubulin polymerization using DAPI by fluorimetry; design: species or system Ovis aries
[2] = test system: OVCAR-3; test: Growth inhibition of human OVCAR3 cells after 48 hrs by sulforhodamine B assay; format: functional; conditions: OVCAR-3, 48 h
[3] = test system: DU-145; test: Growth inhibition of human DU145 cells after 48 hrs by sulforhodamine B assay; format: functional; conditions: DU-145, 48 h
[4] = species on record: Ovis aries; test: Inhibition of sheep brain tubulin polymerization at 100 uM using DAPI by fluorimetry
[5] = test system: MCF7; test: Growth inhibition of human MCF7 cells after 48 hrs by sulforhodamine B assay; format: functional; conditions: MCF7, 48 h
[6] = test system: SF-295; test: Growth inhibition of human SF295 cells after 48 hrs by sulforhodamine B assay; format: functional; conditions: SF-295, 48 h
[7] = test system: NCI-H460; test: Growth inhibition of human NCI-H460 cells after 48 hrs by sulforhodamine B assay; format: functional; conditions: NCI-H460, 48 h
[8] = test system: A498; test: Growth inhibition of human A498 cells after 48 hrs by sulforhodamine B assay; format: functional; conditions: A498, 48 h
[9] = test system: SNB-75; test: Growth inhibition of human SNB75 cells at 10 uM after 48 hrs by sulforhodamine B assay; format: functional; conditions: SNB-75, 48 h, read-out: GI
[10] = test system: HOP-62; test: Growth inhibition of human HOP62 cells at 10 uM after 48 hrs by sulforhodamine B assay; format: functional; conditions: HOP-62, 48 h, read-out: GI
[11] = test system: UACC-62; test: Growth inhibition of human UACC62 cells at 10 uM after 48 hrs by sulforhodamine B assay; format: functional; conditions: UACC-62, 48 h, read-out: GI
[12] = test system: CAKI-1; test: Growth inhibition of human CAKI-1 cells at 10 uM after 48 hrs by sulforhodamine B assay; format: functional; conditions: CAKI-1, 48 h, read-out: GI
[13] = test system: A498; test: Growth inhibition of human A498 cells at 10 uM after 48 hrs by sulforhodamine B assay; format: functional; conditions: A498, 48 h, read-out: GI
[14] = test system: RPMI-8226; test: Growth inhibition of human RPMI8226 cells at 10 uM after 48 hrs by sulforhodamine B assay; format: functional; conditions: RPMI-8226, 48 h, read-out: GI
[15] = test system: HOP-92; test: Growth inhibition of human HOP92 cells at 10 uM after 48 hrs by sulforhodamine B assay; format: functional; conditions: HOP-92, 48 h, read-out: GI
[16] = test system: SK-MEL-5; test: Growth inhibition of human SK-MEL-5 cells at 10 uM after 48 hrs by sulforhodamine B assay; format: functional; conditions: SK-MEL-5, 48 h, read-out: GI
[17] = test system: HL-60(TB); test: Growth inhibition of human HL-60(TB) cells at 10 uM after 48 hrs by sulforhodamine B assay; format: functional; conditions: HL-60, 48 h, read-out: GI
[18] = test system: PC-3; test: Growth inhibition of human PC3 cells at 10 uM after 48 hrs by sulforhodamine B assay; format: functional; conditions: PC-3, 48 h, read-out: GI
[19] = test system: HCT-116; test: Growth inhibition of human HCT116 cells at 10 uM after 48 hrs by sulforhodamine B assay; format: functional; conditions: HCT-116, 48 h, read-out: GI
[20] = test system: LOX IMVI; test: Growth inhibition of human LOXIMVI cells at 10 uM after 48 hrs by sulforhodamine B assay; format: functional; conditions: read-out: GI
[21] = test system: KM12; test: Growth inhibition of human KM12 cells at 10 uM after 48 hrs by sulforhodamine B assay; format: functional; conditions: KM12, 48 h, read-out: GI
[22] = test system: NCI-H522; test: Growth inhibition of human NCI-H522 cells at 10 uM after 48 hrs by sulforhodamine B assay; format: functional; conditions: NCI-H522, 48 h, read-out: GI
[23] = test system: HCT-15; test: Growth inhibition of human HCT15 cells at 10 uM after 48 hrs by sulforhodamine B assay; format: functional; conditions: HCT-15, 48 h, read-out: GI
[24] = test system: Malme-3M; test: Growth inhibition of human MALME-3M cells at 10 uM after 48 hrs by sulforhodamine B assay; format: functional; conditions: read-out: GI
[25] = test system: RXF 393; test: Growth inhibition of human RXF393 cells at 10 uM after 48 hrs by sulforhodamine B assay; format: functional; conditions: RXF 393, 48 h, read-out: GI
[26] = test system: COLO 205; test: Growth inhibition of human COLO205 cells at 10 uM after 48 hrs by sulforhodamine B assay; format: functional; conditions: COLO 205, 48 h, read-out: GI
[27] = test system: SF-295; test: Growth inhibition of human SF295 cells at 10 uM after 48 hrs by sulforhodamine B assay; format: functional; conditions: SF-295, 48 h, read-out: GI
[28] = test system: OVCAR-4; test: Growth inhibition of human OVCAR4 cells at 10 uM after 48 hrs by sulforhodamine B assay; format: functional; conditions: OVCAR-4, 48 h, read-out: GI
[29] = test system: MDA-MB-231; test: Growth inhibition of human MDA-MB-231 cells at 10 uM after 48 hrs by sulforhodamine B assay; format: functional; conditions: MDA-MB-231, 48 h, read-out: GI
[30] = test system: CCRF-CEM; test: Growth inhibition of human CCRF-CEM cells at 10 uM after 48 hrs by sulforhodamine B assay; format: functional; conditions: read-out: GI
[31] = test system: MDA-MB-468; test: Growth inhibition of human MDA-MB-468 cells at 10 uM after 48 hrs by sulforhodamine B assay; format: functional; conditions: MDA-MB-468, 48 h, read-out: GI
[32] = test system: MOLT-4; test: Growth inhibition of human MOLT4 cells at 10 uM after 48 hrs by sulforhodamine B assay; format: functional; conditions: MOLT-4, 48 h, read-out: GI
[33] = test system: MDA-MB-435; test: Growth inhibition of human MDA-MB-435 cells at 10 uM after 48 hrs by sulforhodamine B assay; format: functional; conditions: MDA-MB-435, 48 h, read-out: GI
[34] = test system: MCF7; test: Growth inhibition of human MCF7 cells at 10 uM after 48 hrs by sulforhodamine B assay; format: functional; conditions: MCF7, 48 h, read-out: GI
[35] = test system: 786-0; test: Growth inhibition of human 786-0 cells at 10 uM after 48 hrs by sulforhodamine B assay; format: functional; conditions: 786-0, 48 h, read-out: GI
[36] = test system: UO-31; test: Growth inhibition of human UO31 cells at 10 uM after 48 hrs by sulforhodamine B assay; format: functional; conditions: UO-31, 48 h, read-out: GI
[37] = Growth inhibition of human NCI-ADR-RES cells at 10 uM after 48 hrs by sulforhodamine B assay; format: functional; conditions: read-out: GI
[38] = test system: T47D; test: Growth inhibition of human T47D cells at 10 uM after 48 hrs by sulforhodamine B assay; format: functional; conditions: read-out: GI

COc1ccc(C(=O)c2cc(OC)c(OC)c(OC)c2)cc1O [PHENSTATIN]
IC50 [1]: 3.43 µM | GI50 [2]: 0.002 µM | GI50 [3]: 0.034 µM | inhibition [4]: 99% | GI50 [5]: 0.437 µM | GI50 [6]: 0.052 µM | GI50 [7]: 0.006 µM | GI50 [8]: 0.38 µM

CCOC(=O)c1cc(C(=O)N2c3ccccc3Sc3ccccc32)n2ccc(N(C)C)cc12
inhibition of growth at 10 µM [9]: 30.1% | inhibition of growth at 10 µM [10]: 29.5% | inhibition of growth at 10 µM [11]: 27.7% | inhibition of growth at 10 µM [12]: 23.2% | inhibition [4]: 42% | inhibition of growth at 10 µM [13]: 4.4% | inhibition of growth at 10 µM [14]: 0% | inhibition of growth at 10 µM [15]: 18.4% | inhibition of growth at 10 µM [16]: 23.2% | inhibition of growth at 10 µM [17]: 6.7% | inhibition of growth at 10 µM [18]: 50.7% | inhibition of growth at 10 µM [19]: 12.1% | inhibition of growth at 10 µM [20]: 20.2% | inhibition of growth at 10 µM [21]: 26.4% | inhibition of growth at 10 µM [22]: 26.2% | inhibition of growth at 10 µM [23]: 18.3% | inhibition of growth at 10 µM [24]: 22.7% | inhibition of growth at 10 µM [25]: 33.3% | inhibition of growth at 10 µM [26]: 0% | inhibition of growth at 10 µM [27]: 22.8% | inhibition of growth at 10 µM [28]: 9.5% | inhibition of growth at 10 µM [29]: 7.2% | inhibition of growth at 10 µM [30]: 27.1% | inhibition of growth at 10 µM [31]: 19.7% | inhibition of growth at 10 µM [32]: 15.3% | inhibition of growth at 10 µM [33]: 74.5% | inhibition of growth at 10 µM [34]: 18.5% | inhibition of growth at 10 µM [35]: 0% | inhibition of growth at 10 µM [36]: 0% | inhibition of growth at 10 µM [37]: 29.4% | inhibition of growth at 10 µM [38]: 14.7%
